Assay results taken from patent publication US4529593A, “Use of gallium salts to treat disorders of calcium homeostasis” (Sloan-Kettering Institute for Cancer Research, priority 1984, dated 1985).

Legend:
calcium metabolism = assay: metabolic study of patients receiving gallium nitrate (calcium homeostasis); format: in vivo
From the text: As with most anticancer drugs, gallium can potentially cause serious toxicity. The most serious side-effect being kidney damage. […] Furthermore, the anti bone-resorptive effects of gallium nitrate are achieved with less than 25-50% of the anticancer dose. Thus the method should retain safety and efficacy for prolonged periods of time.
Experimental Results: Studies of calcium homeostasis require an assessment of multiple factors including dietary intake, excretion of calcium into urine and stool, and analysis of calcium mobilization from body stores (chiefly bone). Four patients who participated in a careful study of the effects of gallium nitrate upon calcium metabolism were thus assessed. Patients were hospitalized and received a diet of defined calcium, sodium, and fluid intake. Measurements of calcium excretion into urine and stool (along with multiple other laboratory tests) were made daily during a 6-day baseline period and during a subsequent treatment period using gallium nitrate. The drug was administered as a continuous infusion at a dose of 300 mg/sq m/day for durations ranging from 4-7 days.

bone turnover = bone turnover in a patient with multiple myeloma and extensive bone destruction; format: in vivo; settings: 200 mg/sq m/d×7 d infusion; for urine OH--Proline: previous 95.4; for urine Calcium: previous 618; for urine Phosphorus: previous 1630; for Urine Volume: previous 3640
Protocol: Summary: Patients with bone metastasis suffer progressive erosion of bone which causes pain, immobilization and fractures. Clinically, bone metastases are evaluated by sequential x-rays over a period of months to years. Other measures have recently been employed to measure bone turnover in patients with both cancer and non-cancerous bone resorption. In general, increased bone turnover is associated with increased loss of calcium into the urine and with increased excretion of hydroxyproline ([…]). Measurements of these parameters have been used to assess whether a new drug affects bone resorption (Siris, E. S. et al, New Engl J Med 302:310, 1980). We recently measured these parameters in a patient with multiple myeloma and extensive bone destruction who received gallium nitrate (200 mg/sq m/d×7 d by infusion).

kidney = settings: Leyland-Jones et al 1983; cited from earlier work
[1] = 4 patients, continuous infusion 300 mg/sq m/day, 4-7 days

## O=[N+]([O-])[O-].O=[N+]([O-])[O-].O=[N+]([O-])[O-].[Ga+3] [gallium nitrate]
Calcium metabolism; [1]
  calcium excretion relative to baseline: no significant increase in calcium excretion
  total serum calcium concentration: reduced by the gallium infusion
Calcium metabolism; of the anticancer dose
  dose for anti bone-resorptive effects as share of the anticancer dose: 25-50%
Calcium metabolism; patients receiving gallium nitrate
  urinary calcium excretion: decreased urinary calcium excretion
Calcium metabolism; patients while receiving the drug
  calcium balance: remained in positive calcium balance
Bone turnover; day 8
  urine OH--Proline: 19.0 mg/24 h
  urine Calcium: 97 mg/24 h
  urine Phosphorus: 419 mg/24 h
  Urine Volume: 3225 ml/24 h
Bone turnover; myeloma patient
  amount of calcium and hydroxyproline excretion: marked decrease
  bone pain: substantial decrease in bone pain
  effect upon the underlying disease: no effect upon the underlying disease
  requirement for narcotics: reduced requirement for narcotics
Bone turnover; treatment day 1
  urine OH--Proline: 76.0 mg/24 h
  urine Calcium: 502 mg/24 h
  urine Phosphorus: 567 mg/24 h
  Urine Volume: 4365 ml/24 h
Bone turnover; treatment day 4
  urine OH--Proline: 23.9 mg/24 h
  urine Calcium: 239 mg/24 h
  urine Phosphorus: 607 mg/24 h
  Urine Volume: 3620 ml/24 h
kidney
  nephrotoxicity: generally reversible and that it is not cumulative
